The species entered for assay [1] is Rattus norvegicus. The assay can be described thus: Vasopressor activity in rat. It counts as functional.
Another assay has as its target Vasopressin V1a receptor (Rattus norvegicus, UniProt P30560). The assay can be described thus: Displacement of [3H]AVP from vasopressin V1a receptor in rat liver membrane. It counts as cell membranes. (Loss of bound radioactivity is the signal in a displacement assay; it reports binding, not function.)
Assay [2] concerns the target Vasopressin V2 receptor (Rattus norvegicus) (UniProt Q00788). The assay can be described thus: Activity at vasopressin V2 receptor in rat kidney membranes assessed as maximal adenylate cyclase activity relative to AVP. The note with it: Membrane, filed as agonist. It counts as functional, cell membranes.
The target of assay [3] is T1, Oxytocin receptor (Rattus norvegicus, UniProt P70536).
T1 sequence (P70536 whole entry): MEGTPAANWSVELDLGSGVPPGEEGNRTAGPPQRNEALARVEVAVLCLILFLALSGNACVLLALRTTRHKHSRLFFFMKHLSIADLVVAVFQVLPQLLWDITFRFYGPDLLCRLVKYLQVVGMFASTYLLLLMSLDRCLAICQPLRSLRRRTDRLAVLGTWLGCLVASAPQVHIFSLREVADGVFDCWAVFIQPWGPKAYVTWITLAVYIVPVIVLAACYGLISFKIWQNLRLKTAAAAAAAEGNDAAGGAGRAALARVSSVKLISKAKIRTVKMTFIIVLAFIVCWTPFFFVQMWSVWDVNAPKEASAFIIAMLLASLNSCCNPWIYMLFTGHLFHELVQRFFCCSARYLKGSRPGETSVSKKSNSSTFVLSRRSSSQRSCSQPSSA
The assay can be described thus: Displacement of [3H]AVP from rat OT receptor expressed in CHO cells. It counts as cell-based.

In assay [4] the target is T2, Oxytocin receptor (Homo sapiens, UniProt P30559).
T2 sequence (P30559 whole entry): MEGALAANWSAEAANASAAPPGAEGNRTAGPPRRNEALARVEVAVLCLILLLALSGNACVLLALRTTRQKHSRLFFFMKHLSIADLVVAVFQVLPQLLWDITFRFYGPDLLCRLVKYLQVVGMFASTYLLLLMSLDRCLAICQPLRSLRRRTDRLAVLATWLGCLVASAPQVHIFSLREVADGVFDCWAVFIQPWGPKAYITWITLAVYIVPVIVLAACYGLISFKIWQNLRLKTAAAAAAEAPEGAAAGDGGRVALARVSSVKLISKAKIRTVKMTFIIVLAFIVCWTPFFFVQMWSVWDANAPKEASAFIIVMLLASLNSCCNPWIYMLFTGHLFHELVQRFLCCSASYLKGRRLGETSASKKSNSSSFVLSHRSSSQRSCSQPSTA
The assay can be described thus: (§1) Activity at OT receptor assessed as oxytocic activity in absence of magnesium. It is filed as functional. The note with it: read-out: pA2 (converted).

The target of the next assay is Vasopressin V2 receptor (Rattus norvegicus, UniProt Q00788). The assay can be described thus: Displacement of [3H]AVP from vasopressin V2 receptor in rat kidney membranes. It counts as cell membranes, Membrane.
In assay [5] the target is Vasopressin V2 receptor (Rattus norvegicus) (UniProt Q00788). The assay can be described thus: Activity at vasopressin V2 receptor in rat kidney membranes assessed as adenylate cyclase activity. It is filed as functional, cell membranes. The following applies: Membrane, filed as agonist.
The species entered for assay [6] is Rattus norvegicus. The assay can be described thus: Antidiuretic activity in rat. It is filed as functional, Urine.
For assay [7], the target named is T3, Vasopressin V1b receptor (Rattus norvegicus) (UniProt P48974).
T3 sequence (whole entry): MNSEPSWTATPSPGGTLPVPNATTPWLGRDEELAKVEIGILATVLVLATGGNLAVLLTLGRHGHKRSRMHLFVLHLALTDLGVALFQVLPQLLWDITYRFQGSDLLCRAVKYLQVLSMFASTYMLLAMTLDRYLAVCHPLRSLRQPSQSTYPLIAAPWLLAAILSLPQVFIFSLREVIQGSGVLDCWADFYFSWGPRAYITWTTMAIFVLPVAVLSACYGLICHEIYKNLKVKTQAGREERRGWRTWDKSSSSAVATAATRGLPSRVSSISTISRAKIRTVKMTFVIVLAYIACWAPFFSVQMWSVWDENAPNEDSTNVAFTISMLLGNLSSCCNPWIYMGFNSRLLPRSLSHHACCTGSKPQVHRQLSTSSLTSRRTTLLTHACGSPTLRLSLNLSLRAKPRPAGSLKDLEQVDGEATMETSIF
The note with it: AtT20, filed as agonist.

Assay [8] has as its target T4, Oxytocin receptor (Homo sapiens) (UniProt P30559).
T4 sequence (whole entry): T2 sequence (P30559 whole entry)
The description is as §1. It is filed as functional. The note with it: filed as agonist.

In general, Ki refers to the equilibrium dissociation constant of an inhibitor or competing ligand from its target. The low end stands for higher affinity, the high end for lower affinity.

Positions of bridges follow the written chain, without caps; N, C: chain ends. Non-standard residues stand in square brackets, D forms with d. Residues, ends and D or L forms follow the SMILES beside them. Cha = N[C@@H](CC1CCCCC1)C(=O)O; Orn = NCCC[C@H](N)C(=O)O; Dab = NCC[C@H](N)C(=O)O; Dap = NC[C@H](N)C(=O)O; Mpa = O=C(O)CCS

Sequence of Vasopressin V1a receptor (P30560 whole entry): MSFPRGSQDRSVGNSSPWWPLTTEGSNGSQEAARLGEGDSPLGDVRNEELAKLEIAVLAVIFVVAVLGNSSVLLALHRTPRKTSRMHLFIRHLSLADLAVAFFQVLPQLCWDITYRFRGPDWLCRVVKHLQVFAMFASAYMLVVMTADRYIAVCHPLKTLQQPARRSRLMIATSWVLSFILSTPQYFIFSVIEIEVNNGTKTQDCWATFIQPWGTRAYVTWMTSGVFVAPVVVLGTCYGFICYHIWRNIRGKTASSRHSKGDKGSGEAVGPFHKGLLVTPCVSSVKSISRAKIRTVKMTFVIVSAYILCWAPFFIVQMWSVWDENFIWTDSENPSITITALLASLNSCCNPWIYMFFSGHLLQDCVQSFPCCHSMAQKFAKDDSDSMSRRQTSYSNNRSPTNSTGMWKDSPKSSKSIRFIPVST
Sequence of Vasopressin V2 receptor (Rattus norvegicus) (Q00788 whole entry): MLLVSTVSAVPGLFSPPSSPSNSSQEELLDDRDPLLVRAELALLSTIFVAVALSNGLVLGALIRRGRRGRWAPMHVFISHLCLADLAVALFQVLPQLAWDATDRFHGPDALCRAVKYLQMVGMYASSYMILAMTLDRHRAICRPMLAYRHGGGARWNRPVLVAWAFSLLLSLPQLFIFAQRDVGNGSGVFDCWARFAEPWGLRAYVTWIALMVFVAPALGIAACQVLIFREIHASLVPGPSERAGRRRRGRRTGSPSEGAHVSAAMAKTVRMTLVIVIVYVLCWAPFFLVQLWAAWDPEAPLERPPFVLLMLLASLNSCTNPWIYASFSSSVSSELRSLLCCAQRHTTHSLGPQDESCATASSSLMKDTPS
Sequence of Vasopressin V2 receptor (Q00788 whole entry): as above

For `NCC[C@H](NC(=O)[C@@H]1CCCN1C(=O)[C@@H]1CSSCCC(=O)N[C@@H](Cc2ccc(O)cc2)C(=O)N[C@@H](Cc2ccccc2)C(=O)N[C@@H](CC2CCCCC2)C(=O)N[C@@H](CC(N)=O)C(=O)N1)C(=O)NCC(N)=O` ([Mpa]YF[Cha]NCP[Dab]G-NH2; disulfide 1-6), the Activity in the assay filed under Rattus norvegicus [1] is 0.18 U/mg; in [2] it was 75%; in the assay listed under Rattus norvegicus [6] it was 1 U/mg. Also, the Ki on Vasopressin V1a receptor was 4400 nM (antagonist); on Oxytocin receptor [3], 430 nM (antagonist); at Vasopressin V2 receptor it was 450 nM (antagonist). For the same compound, on Oxytocin receptor [4], the Kb is given as 447 nM (agonist). The Kact in assay [5] was 174 nM.

In the case of `NCCCC[C@H](NC(=O)[C@@H]1CCCN1C(=O)[C@@H]1CSSCCC(=O)N[C@@H](Cc2ccc(O)cc2)C(=O)N[C@@H](Cc2ccccc2)C(=O)N[C@@H](CC2CCCCC2)C(=O)N[C@@H](CC(N)=O)C(=O)N1)C(=O)NCC(N)=O` ([Mpa]YF[Cha]NCPKG-NH2; disulfide 1-6), the Activity in the assay filed under Rattus norvegicus [1] was 0.043 U/mg; in the assay filed under Rattus norvegicus [6], 0.82 U/mg. The Ki on Vasopressin V1a receptor was 9100 nM (antagonist); at Oxytocin receptor [3], 590 nM (antagonist); at Vasopressin V2 receptor it was 600 nM (antagonist). Moreover, at Oxytocin receptor [4], the Kb is 331 nM (agonist).

Consider `NC[C@H](NC(=O)[C@@H]1CCCN1C(=O)[C@@H]1CSSCCC(=O)N[C@@H](Cc2ccc(O)cc2)C(=O)N[C@@H](Cc2ccccc2)C(=O)N[C@@H](CC2CCCCC2)C(=O)N[C@@H](CC(N)=O)C(=O)N1)C(=O)NCC(N)=O` ([Mpa]YF[Cha]NCP[Dap]G-NH2; disulfide 1-6), for which the Activity in the assay listed under Rattus norvegicus [1] was found to be 0.002 U/mg; in the assay filed under Rattus norvegicus [6] it was 0.3 U/mg. In addition, the Ki is 1800 nM (antagonist) at Vasopressin V1a receptor, 1200 nM (antagonist) on Oxytocin receptor [3] and 1050 nM (antagonist) at Vasopressin V2 receptor. For the same compound, the Kb at Oxytocin receptor [4] is listed as 479 nM (agonist).

For `N=C(N)NCCC[C@H](NC(=O)[C@@H]1CCCN1C(=O)[C@@H]1CSSC[C@H](N)C(=O)N[C@@H](Cc2ccc(O)cc2)C(=O)N[C@@H](Cc2ccccc2)C(=O)N[C@@H](CCC(N)=O)C(=O)N[C@@H](CC(N)=O)C(=O)N1)C(=O)NCC(N)=O` [VASOPRESSIN], the figures for the Kact in [5] and in [7] were 0.32 nM and 2.3 nM, respectively. Besides, the Activity in the assay listed under Rattus norvegicus [6] worked out at 323 U/mg.

Consider `NCCC[C@H](NC(=O)[C@@H]1CCCN1C(=O)[C@@H]1CSSCCC(=O)N[C@@H](Cc2ccc(O)cc2)C(=O)N[C@@H](Cc2ccccc2)C(=O)N[C@@H](CC2CCCCC2)C(=O)N[C@@H](CC(N)=O)C(=O)N1)C(=O)NCC(N)=O` ([Mpa]YF[Cha]NCP[Orn]G-NH2; disulfide 1-6), for which the Activity amounted to 0.22 U/mg in the assay listed under Rattus norvegicus [1] and 1 U/mg in the assay filed under Rattus norvegicus [6]. The Ki is 2900 nM (antagonist) at Vasopressin V1a receptor, 550 nM (antagonist) on Oxytocin receptor [3] and 450 nM (antagonist) at Vasopressin V2 receptor. In addition, on Oxytocin receptor [4], the Kb was 282 nM (agonist).

Regarding `N=C(N)NCCC[C@@H]1NC(=O)[C@H](Cc2ccccc2)NC(=O)[C@H](Cc2ccc(O)cc2)NC(=O)CCSSC[C@@H](C(=O)N2CCC[C@H]2C(=O)N[C@@H](CCCN)C(=O)NCC(N)=O)NC(=O)[C@H](CC(N)=O)NC1=O` ([Mpa]YFRNCP[Orn]G-NH2; disulfide 1-6), the Activity was 173 U/mg in the assay listed under Rattus norvegicus [1], 0.06 U/mg in assay [8] and 823 U/mg in the assay listed under Rattus norvegicus [6]. The figures for the inhibition constant (Ki) on Vasopressin V1a receptor, at Oxytocin receptor [3] and at Vasopressin V2 receptor were 67 nM (antagonist), 130 nM (antagonist) and 3.1 nM (antagonist), respectively.

Consider `N=C(N)NCCC[C@@H]1NC(=O)[C@H](Cc2ccccc2)NC(=O)[C@H](Cc2ccc(O)cc2)NC(=O)CCSSC[C@@H](C(=O)N2CCC[C@H]2C(=O)N[C@@H](CCCCN)C(=O)NCC(N)=O)NC(=O)[C@H](CC(N)=O)NC1=O` ([Mpa]YFRNCPKG-NH2; disulfide 1-6), for which the figures for the Activity (in the assay filed under Rattus norvegicus [1]; in assay [8]; in the assay filed under Rattus norvegicus [6]) were 83 U/mg, 0.15 U/mg and 784 U/mg, respectively. The Ki is on record as 130 nM (antagonist) at Vasopressin V1a receptor, 125 nM (antagonist) on Oxytocin receptor [3] and 3.8 nM (antagonist) at Vasopressin V2 receptor.

Regarding `CC(C)C[C@@H]1NC(=O)[C@H](Cc2ccccc2)NC(=O)[C@H](Cc2ccc(O)cc2)NC(=O)CCSSC[C@@H](C(=O)N2CCC[C@H]2C(=O)N[C@@H](CN)C(=O)NCC(N)=O)NC(=O)[C@H](CC(N)=O)NC1=O` ([Mpa]YFLNCP[Dap]G-NH2; disulfide 1-6), the Activity in the assay filed under Rattus norvegicus [1] was 0.05 U/mg; in assay [2] it was 97%; in assay [8], 0.046 U/mg; in the assay filed under Rattus norvegicus [6] it was 0.7 U/mg. The results for the Ki at Vasopressin V1a receptor, at Oxytocin receptor [3] and on Vasopressin V2 receptor were 3300 nM (antagonist), 134 nM (antagonist) and 240 nM (antagonist), respectively. The Kact in assay [5] is 300 nM.

On to `CC(C)C[C@@H]1NC(=O)[C@H](Cc2ccccc2)NC(=O)[C@H](Cc2ccc(O)cc2)NC(=O)CCSSC[C@@H](C(=O)N2CCC[C@H]2C(=O)N[C@@H](CCCCN)C(=O)NCC(N)=O)NC(=O)[C@H](CC(N)=O)NC1=O` ([Mpa]YFLNCPKG-NH2; disulfide 1-6), for which the Activity in the assay filed under Rattus norvegicus [1] was 0.9 U/mg; in assay [2], 76%; in [8], 0.054 U/mg; in the assay listed under Rattus norvegicus [6] it was 10.5 U/mg. The figures for the Ki on Vasopressin V1a receptor, at Oxytocin receptor [3] and on Vasopressin V2 receptor were 3800 nM (antagonist), 64 nM (antagonist) and 100 nM (antagonist), respectively. Also, the Kact in [5] is 196 nM.

Consider `N=C(N)NCCC[C@@H]1NC(=O)[C@H](Cc2ccccc2)NC(=O)[C@H](Cc2ccc(O)cc2)NC(=O)CCSSC[C@@H](C(=O)N2CCC[C@H]2C(=O)N[C@@H](CCN)C(=O)NCC(N)=O)NC(=O)[C@H](CC(N)=O)NC1=O` ([Mpa]YFRNCP[Dab]G-NH2; disulfide 1-6), for which the figures for the Activity (in the assay filed under Rattus norvegicus [1]; in [8]; in the assay filed under Rattus norvegicus [6]) were 190 U/mg, 0.14 U/mg and 431 U/mg, respectively. Also, the Ki on Vasopressin V1a receptor is on record as 25 nM (antagonist); at Oxytocin receptor [3], 195 nM (antagonist); on Vasopressin V2 receptor it was 1.8 nM (antagonist).

Consider `NC(=O)CNC(=O)[C@H](CCCN=C(N)N)NC(=O)[C@@H]1CCCN1C(=O)[C@@H]1CSSCCC(=O)N[C@@H](Cc2ccc(O)cc2)C(=O)N[C@@H](Cc2ccccc2)C(=O)N[C@@H](CC2CCCCC2)C(=O)N[C@@H](CC(N)=O)C(=O)N1` ([Mpa]YF[Cha]NCPRG-NH2; disulfide 1-6), for which the figures for the Activity (in the assay filed under Rattus norvegicus [1]; in [2]; in the assay filed under Rattus norvegicus [6]) were 0.067 U/mg, 86% and 133.6 U/mg, respectively. Also, the Ki on Vasopressin V1a receptor is 2300 nM (antagonist); at Vasopressin V2 receptor it was 12.7 nM (antagonist).

For `CC(C)C[C@@H]1NC(=O)[C@H](Cc2ccccc2)NC(=O)[C@H](Cc2ccc(O)cc2)NC(=O)CCSSC[C@@H](C(=O)N2CCC[C@H]2C(=O)N[C@@H](CCN)C(=O)NCC(N)=O)NC(=O)[C@H](CC(N)=O)NC1=O` ([Mpa]YFLNCP[Dab]G-NH2; disulfide 1-6), the Activity was 3.5 U/mg in the assay filed under Rattus norvegicus [1], 0.27 U/mg in [8] and 5.7 U/mg in the assay listed under Rattus norvegicus [6]. Further, the Ki on Vasopressin V1a receptor was 1000 nM (antagonist); at Oxytocin receptor [3] it was 41 nM (antagonist); on Vasopressin V2 receptor, 210 nM (antagonist).

Source of the values: ChEMBL document CHEMBL1141418 (J Med Chem, 2007).
